{"source": "paper PMC4578723", "about": "(Biochemical and biophysical research communications, 2013)", "target": "PTEN (Homo sapiens, UniProt P60484)", "sequence (P60484 2-403)": "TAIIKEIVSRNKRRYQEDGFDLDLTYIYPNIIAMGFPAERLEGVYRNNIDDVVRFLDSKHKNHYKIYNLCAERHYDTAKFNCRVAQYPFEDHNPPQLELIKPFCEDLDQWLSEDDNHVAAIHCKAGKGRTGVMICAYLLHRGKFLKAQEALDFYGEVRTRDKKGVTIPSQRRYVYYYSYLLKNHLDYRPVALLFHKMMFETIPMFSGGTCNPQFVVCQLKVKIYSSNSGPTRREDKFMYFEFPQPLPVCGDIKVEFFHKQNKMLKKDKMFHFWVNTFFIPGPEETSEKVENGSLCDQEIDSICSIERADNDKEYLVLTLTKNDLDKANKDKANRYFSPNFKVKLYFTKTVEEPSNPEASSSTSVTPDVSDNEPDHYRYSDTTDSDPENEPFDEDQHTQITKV", "assay": "absorbance […] nm, pNPP hydrolysis", "assay_type": "biochemical", "conditions": "100 mM pNPP; 25 °C; Tris-HCl pH 8.0"}
{"smiles": "O=[N+]([O-])c1ccc(OP(=O)(O)O)cc1", "note": "[pNPP]", "values": [{"measurement": "absorbance 405 nm, pNPP hydrolysis", "value": "in vitro activity and affinity for pNPP substrate are similar for both INPP4B and PTEN"}]}
